Reference: patent US12629374B2, “Antimalarial agents” (Merck Sharp & Dohme LLC, priority 2020, dated 2026)

Tested on: ring stage parasites
Experiment: Parasite growth potency assay, 72 hours, LDH readout
Format: cell-based
Details: 72 h, parasite growth measured by LDH assay after 72 hours at 37° C.; 0.7% rings, 2% haematocrit; read-out: EC50
How it was run: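 Parasite growth was quantified by LDH assay after a −80 °C freeze-thaw. Before that, compound was incubated for 72 h at 37 °C under humidified gas with ring-stage cultures adjusted to 0.7% parasitemia and 2% haematocrit in serum- and albumax-supplemented RPMI-Hepes.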

Row | Compound | EC50 [nM]
1 | CCC1(CC)CC(=O)N([C@H](C)c2cccc(C(=O)N[C@@H]3c4ccccc4OC(C)(C)[C@H]3O)c2)C(=N)N1 [Example 193, [4,4-diethyl-1-[(1R)-1-[3-[[(3S,4R)-3-hydroxy-2,2-dimethyl-chroman-4-yl]carbamoyl]phenyl]ethyl]-6-oxo-hexahydropyrimidin-2-ylidene]ammonium; 2,2,2-trifluoroacetate] | 0.6
2 | CC1(C)CC(=O)N(Cc2cccc(C(=O)N[C@@H]3c4ccccc4OC(C)(C)[C@H]3O)c2)C(=N)N1 [Example 194, [1-[[3-[[(3S,4R)-3-hydroxy-2,2-dimethyl-chroman-4-yl]carbamoyl]phenyl]methyl]-4,4-dimethyl-6-oxo-hexahydropyrimidin-2-ylidene]ammonium; 2,2,2-trifluoroacetate] | 11.6
3 | CCC1(C)CC(=O)N([C@H](CCOC)c2cccc(C(=O)N[C@@H]3c4ccccc4C[C@H]3O)c2)C(=N)N1 (stereo partly drawn) [Example 195A, [4-ethyl-1-[(1R)-1-[3-[[(1R,2R)-2-hydroxyindan-1-yl]carbamoyl]phenyl]-3-methoxy-propyl]-4-methyl-6-oxo-hexahydropyrimidin-2-ylidene]ammonium; 2,2,2-trifluoroacetate] | 3.3
4 | CC1(C)CC(=O)N(Cc2cccc(C(=O)N[C@H]3CC(C)(C)Oc4ccccc43)c2)C(=N)N1 [Example 198, [1-[[3-[[(4S)-2,2-dimethylchroman-4-yl]carbamoyl]phenyl]methyl]-4,4-dimethyl-6-oxo-hexahydropyrimidin-2-ylidene]ammonium; 2,2,2-trifluoroacetate] | 17
5 | COCC[C@H](c1cccc(C(=O)N[C@@H]2c3cc(F)ccc3C[C@H]2O)c1)N1C(=N)NC(C)(C)CC1=O [Example 200, [1-[(1R)-1-[3-[(6-fluoro-2-hydroxy-indan-1-yl)carbamoyl]phenyl]-3-methoxy-propyl]-4,4-dimethyl-6-oxo-hexahydropyrimidin-2-ylidene]ammonium; 2,2,2-trifluoroacetate] | 7.1
6 | CCC1(CC)CC(=O)N([C@H](CCOCCOCCOCCN=[N+]=[N-])c2cccc(C(=O)N[C@H]3CC(C)(C)Oc4ccccc43)c2)C(=N)N1 [Example 201, [1-[(1R)-3-[2-[2-(2-azidoethoxy)ethoxy]ethoxy]-1-[3-[[(4S)-2,2-dimethylchroman-4-yl]carbamoyl]phenyl]propyl]-4,4-diethyl-6-oxo-hexahydropyrimidin-2-ylidene]ammonium; 2,2,2-trifluoroacetate] | 1.2
7 | CCC1(CC)CC(=O)N([C@H](CCOC)c2cccc(C(=O)N[C@@H]3c4ccccc4C[C@@H]3O)c2)C(=N)N1 [Example 202, [4,4-diethyl-1-[(1R)-1-[3-[[(1R,2S)-2-hydroxyindan-1-yl]carbamoyl]phenyl]-3-methoxy-propyl]-6-oxo-hexahydropyrimidin-2-ylidene]ammonium; 2,2,2-trifluoroacetate] | 5.3
8 | CCC1(CC)CC(=O)N([C@H](CCOC)c2cccc(C(=O)N[C@@H]3c4ccccc4OC(C)(C)C3(C)O)c2)C(=N)N1 (stereo partly drawn) [Example 203, 3-[(1R)-1-(4,4-diethyl-2-imino-6-oxo-hexahydropyrimidin-1-yl)-3-methoxy-propyl]-N-(3-hydroxy-2,2,3-trimethyl-chroman-4-yl)benzamide] | 0.3
9 | CCC1(CC)CC(=O)N([C@H](C)c2cccc(C(=O)N[C@@H]3c4ccccc4OC[C@@]3(C)O)c2)C(=N)N1 [Example 205A, [4,4-diethyl-1-[(1R)-1-[3-[[(3S,4R)-3-hydroxy-3-methyl-chroman-4-yl]carbamoyl]phenyl]ethyl]-6-oxo-hexahydropyrimidin-2-ylidene]ammonium; 2,2,2-trifluoroacetate] | 1.1
10 | CC[C@H](c1cccc(C(=O)N[C@@H]2c3ccccc3OC[C@@]2(C)O)c1)N1C(=N)NC(CC)(CC)CC1=O [Example 206A, 3-[1-(4,4-diethyl-2-imino-6-oxo-hexahydropyrimidin-1-yl)propyl]-N-[(3S,4R)-3-hydroxy-3-methyl-chroman-4-yl]benzamide] | 1
11 | CC[C@H](c1cccc(C(=O)N[C@@H]2c3ccccc3OC(C)(C)[C@H]2O)c1)N1C(=N)NC(CC)(CC)CC1=O [Example 207A, [4,4-diethyl-1-[1-[3-[[(3S,4R)-3-hydroxy-2,2-dimethyl-chroman-4-yl]carbamoyl]phenyl]propyl]-6-oxo-hexahydropyrimidin-2-ylidene]ammonium; 2,2,2-trifluoroacetate] | 0.3
12 | CC[C@@H](c1cccc(C(=O)N[C@@H]2c3ccccc3OC(C)(C)[C@H]2O)c1)N1C(=N)NC(CC)(CC)CC1=O [Example 207B, [4,4-diethyl-1-[1-[3-[[(3S,4R)-3-hydroxy-2,2-dimethyl-chroman-4-yl]carbamoyl]phenyl]propyl]-6-oxo-hexahydropyrimidin-2-ylidene]ammonium; 2,2,2-trifluoroacetate] | 72
13 | CC[C@H](c1cccc(C(=O)N[C@@H]2c3ccccc3C[C@H]2O)c1)N1C(=N)NC(CC)(CC)CC1=O [Example 208, [4,4-diethyl-1-[1-[3-[[(1R,2R)-2-hydroxyindan-1-yl]carbamoyl]phenyl]propyl]-6-oxo-hexahydropyrimidin-2-ylidene]ammonium; 2,2,2-trifluoroacetate] | 0.7
14 | C#CCC[C@H](c1cccc(C(=O)N[C@H]2CCOc3ccccc32)c1)N1C(=N)NC(CC)(CC)CC1=O [Example 209, [1-[1-[3-LL(4R)-chroman-4-yl]carbamoyl]phenyl]pent-4-ynyl]-4,4-diethyl-6-oxo-hexahydropyrimidin-2-ylidene]ammonium; 2,2,2-trifluoroacetate] | 8.9
15 | C#CCCC[C@H](c1cccc(C(=O)N[C@H]2CCOc3ccccc32)c1)N1C(=N)NC(CC)(CC)CC1=O [Example 210A, [1-[1-[3-[[(4S)-chroman-4-yl]carbamoyl]phenyl]hex-5-ynyl]-4,4-diethyl-6-oxo-hexahydropyrimidin-2-ylidene]ammonium; 2,2,2-trifluoroacetate] | 0.7
16 | C#CCC[C@@H](c1cccc(C(=O)NC2CC(C)(C)Oc3ccccc32)c1)N1C(=N)NC(CC)(CC)CC1=O (stereo partly drawn) [Example 214A, 3-[(1S)-1-(4,4-diethyl-2-imino-6-oxo-hexahydropyrimidin-1-yl)pent-4-ynyl]-N-(2,2-dimethylchroman-4-yl)benzamide] | 26.3

Same assay, conditions: parasite growth measured by LDH assay after 72 hours at 37° C.; 0.7% rings, 2% haematocrit; read-out: EC50

Row | Compound | EC50 [nM]
17 | CCC1(C)CC(=O)N([C@H](CCOC)c2cccc(C(=O)N[C@@H]3c4ccccc4CC3(C)O)c2)C(=N)N1 (stereo partly drawn) [Example 196A, 3-[(1R)-1-(4-ethyl-2-imino-4-methyl-6-oxo-hexahydropyrimidin-1-yl)-3-methoxy-propyl]-N-[(1R,2S)-2-hydroxy-2-methyl-indan-1-yl]benzamide] | 6.5
18 | CCC1(C)CC(=O)N([C@H](CCOC)c2cccc(C(=O)N[C@@H]3c4ccccc4CC3(C)O)c2)C(=N)N1 (stereo partly drawn) [Example 196B, 3-[(1R)-1-(4-ethyl-2-imino-4-methyl-6-oxo-hexahydropyrimidin-1-yl)-3-methoxy-propyl]-N-[(1R,2S)-2-hydroxy-2-methyl-indan-1-yl]benzamide] | 3.1
19 | CCC1(C)CC(=O)N([C@H](CCOC)c2cccc(C(=O)N[C@@H]3c4ccccc4C[C@@]3(C)O)c2)C(=N)N1 (stereo partly drawn) [Example 196C, 3-[(1R)-1-(4-ethyl-2-imino-4-methyl-6-oxo-hexahydropyrimidin-1-yl)-3-methoxy-propyl]-N-[(1R,2R)-2-hydroxy-2-methyl-indan-1-yl]benzamide] | 7.4
20 | CCC1(C)CC(=O)N([C@H](CCOC)c2cccc(C(=O)N[C@@H]3c4ccccc4CC3(C)O)c2)C(=N)N1 (stereo partly drawn) [Example 196D, 3-[(1R)-1-(4-ethyl-2-imino-4-methyl-6-oxo-hexahydropyrimidin-l-yl)-3-methoxy-propyl]-N-[(1R,2R)-2-hydroxy-2-methyl-indan-1-yl]benzamide] | 6.8
21 | C#CCCC(c1cccc(C(=O)NC2CC(C)(C)Oc3ccccc32)c1)N1C(=N)NC(CC)(CC)CC1=O [Example 214B, 3-[(1R)-1-(4,4-diethyl-2-imino-6-oxo-hexahydropyrimidin-1-yl)pent-4-ynyl]-N-(2,2-dimethylchroman-4-yl)benzamide] | 31.2

Same assay, conditions: parasite growth measured by LDH assay after 72 hours at 37° C.; 0.7% rings, 2% haematocrit; trifluoroacetate; read-out: EC50

Row | Compound | EC50 [nM]
22 | CCC1(C)CC(=O)N([C@H](CCOC)c2cccc(C(=O)N[C@@H]3c4ccccc4C[C@H]3O)c2)C(=N)N1 (stereo partly drawn) [Example 195B, [4-ethyl-1-[(1R)-1-[3-[[(1R,2R)-2-hydroxyindan-1-yl]carbamoyl]phenyl]-3-methoxy-propyl]-4-methyl-6-oxo-hexahydropyrimidin-2-ylidene]ammonium; 2,2,2-trifluoroacetate] | 2.7
23 | CCC1(CC)CC(=O)N([C@H](C)c2cccc(C(=O)N[C@@H]3c4ccccc4OC[C@]3(C)O)c2)C(=N)N1 [Example 205B, [4,4-diethyl-1-[(1R)-1-[3-[[(3R,4R)-3-hydroxy-3-methyl-chroman-4-yl]carbamoyl]phenyl]ethyl]-6-oxo-hexahydropyrimidin-2-ylidene]ammonium; 2,2,2-trifluoroacetate] | 1.9
24 | CC[C@H](c1cccc(C(=O)N[C@@H]2c3ccccc3OC[C@]2(C)O)c1)N1C(=N)NC(CC)(CC)CC1=O [Example 206B, [4,4-diethyl-1-[1-[3-[[(3R,4R)-3-hydroxy-3-methyl-chroman-4-yl]carbamoyl]phenyl]propyl]-6-oxo-hexahydropyrimidin-2-ylidene]ammonium; 2,2,2-trifluoroacetate] | 0.7
25 | C#CCCCC(c1cccc(C(=O)N[C@@H]2CCOc3ccccc32)c1)N1C(=N)NC(CC)(CC)CC1=O (stereo partly drawn) [Example 210B, [1-[1-[3-[[(4R)-chroman-4-yl]carbamoyl]phenyl]hex-5-ynyl]-4,4-diethyl-6-oxo-hexahydropyrimidin-2-ylidene]ammonium; 2,2,2-trifluoroacetate] | 2.3
26 | C#CCCCC(c1cccc(C(=O)NC2CCOc3ccccc32)c1)N1C(=N)NC(CC)(CC)CC1=O [Example 210C, [1-[1-[3-[[(4S)-chroman-4-yl]carbamoyl]phenyl]hex-5-ynyl]-4,4-diethyl-6-oxo-hexahydropyrimidin-2-ylidene]ammonium; 2,2,2-trifluoroacetate] | 6.9
